Test systems include RPMI-8226 leukemia; OVCAR-4 ovarian; OVCAR-8 ovarian; UO-31 renal; ACHN renal; SF-295 CNS; RXF 393 renal; LOX IMVI melanoma; K-562 leukemia; 786-0 renal.
What all share (test): NCI anticancer screen, dose series, 48 h

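A five-concentration, 48-hour dose response in 96-well plates underlies each endpoint, interpolated linearly between surrounding concentrations. GI50 marks 50% less growth. TGI denotes the concentration required for complete inhibition of growth.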

In the case of `CC(=O)Nc1nc(C)c(-c2cc3c(c(S(C)(=O)=O)c2)C(=O)N([C@@H](C)C2CC2)C3)s1`, the GI50 is 17.6 µM in the experiment on RPMI-8226 leukemia; 29.2 µM in the experiment on OVCAR-4 ovarian; 39.4 µM in the experiment on OVCAR-8 ovarian; 24.8 µM with UO-31 renal; 28.3 µM with ACHN renal; 31.6 µM with SF-295 CNS. The figures for the GI50 with RXF 393 renal, in the experiment on LOX IMVI melanoma and in the experiment with K-562 leukemia were 14.2 µM, 29.1 µM and 34.2 µM, respectively. Also, the TGI is 52.9 µM in the experiment with RPMI-8226 leukemia; above 100 µM with OVCAR-4 ovarian; above 100 µM with OVCAR-8 ovarian; above 100 µM in the experiment with UO-31 renal; above 100 µM in the experiment with ACHN renal; above 100 µM with SF-295 CNS. Besides, the figures for the TGI in the experiment with RXF 393 renal, in the experiment with LOX IMVI melanoma and with K-562 leukemia were 51.6 µM, above 100 µM and above 100 µM, respectively.

As to `NC(=O)N/N=C/c1ccccc1O`, the TGI in the experiment on RPMI-8226 leukemia, in the experiment with OVCAR-4 ovarian, with OVCAR-8 ovarian, with UO-31 renal, with ACHN renal and with SF-295 CNS was above 100 µM throughout. For the same compound, the TGI with RXF 393 renal, in the experiment with 786-0 renal, with LOX IMVI melanoma and in the experiment with K-562 leukemia was above 100 µM each time.

In the case of `C=C(C)COC(=O)COCC(=O)OCC(=C)C`, the TGI with RPMI-8226 leukemia, with OVCAR-4 ovarian, in the experiment on OVCAR-8 ovarian, in the experiment on UO-31 renal, in the experiment on ACHN renal and with SF-295 CNS was above 100 µM each time. Also, the TGI in the experiment with RXF 393 renal, in the experiment with 786-0 renal and in the experiment with K-562 leukemia was above 100 µM throughout.

In the case of `COc1cc2c(cc1OC)C(=O)N1CCCC1C(=O)S2` (configuration not stated), the TGI in the experiment on RPMI-8226 leukemia, with OVCAR-8 ovarian, in the experiment with UO-31 renal, in the experiment on ACHN renal, with SF-295 CNS and with RXF 393 renal was above 100 µM in each case. Besides, the TGI in the experiment on 786-0 renal, with LOX IMVI melanoma and in the experiment on K-562 leukemia was above 100 µM in each case.

In the case of `O=Cc1ccc2[nH]c(=O)oc2c1`, the TGI was above 100 µM in the experiment on RPMI-8226 leukemia; above 100 µM with OVCAR-8 ovarian; 82.7 µM in the experiment with UO-31 renal; above 100 µM in the experiment on ACHN renal; above 100 µM with SF-295 CNS; above 100 µM in the experiment on RXF 393 renal. Further, the TGI in the experiment on 786-0 renal, in the experiment with LOX IMVI melanoma and in the experiment on K-562 leukemia was above 100 µM in each case.

As to `Cc1ccc2c(c1)C/C(=C\c1ccccc1C(=O)O)C2=O`, the TGI in the experiment on RPMI-8226 leukemia, in the experiment with OVCAR-4 ovarian, with OVCAR-8 ovarian, with UO-31 renal, with ACHN renal and in the experiment with SF-295 CNS was above 100 µM throughout. For the same compound, the TGI in the experiment with RXF 393 renal, with 786-0 renal, in the experiment with LOX IMVI melanoma and with K-562 leukemia was above 100 µM throughout.

In the case of `Cc1cccc2c(=O)c3c(O)cc4c(c3n(C)c12)C=CC(C)(C)O4`, the TGI in the experiment on RPMI-8226 leukemia is 66.5 µM; in the experiment on OVCAR-4 ovarian, above 100 µM; in the experiment with OVCAR-8 ovarian, above 100 µM; in the experiment on ACHN renal, above 100 µM; with SF-295 CNS it was above 100 µM; in the experiment on RXF 393 renal it was 38 µM. The TGI with 786-0 renal is above 100 µM; with LOX IMVI melanoma, above 100 µM; with K-562 leukemia, 48 µM.

On to `CC(=O)NC1=CC(=O)C=C(Cl)C1=O`, for which the TGI in the experiment with RPMI-8226 leukemia is 52.1 µM; in the experiment on OVCAR-4 ovarian, 37.7 µM; in the experiment with OVCAR-8 ovarian it was above 100 µM; in the experiment with UO-31 renal it was above 100 µM; in the experiment with ACHN renal, above 100 µM; with SF-295 CNS, above 100 µM. Moreover, the TGI is above 100 µM in the experiment on RXF 393 renal, above 100 µM with 786-0 renal and 93.6 µM with K-562 leukemia.

As for `Cc1cn(C2CC(O)C(Cn3nncc3Cn3ccc(=O)[nH]c3=O)O2)c(=O)[nH]c1=O` (configuration not stated), the TGI in the experiment with RPMI-8226 leukemia, in the experiment on OVCAR-4 ovarian, with OVCAR-8 ovarian, in the experiment on UO-31 renal, in the experiment with ACHN renal and in the experiment on SF-295 CNS was above 100 µM in each case. In addition, the TGI in the experiment on RXF 393 renal, with 786-0 renal and in the experiment on LOX IMVI melanoma was above 100 µM in each case.

As for `COc1cc(C2SC(N)=Nc3c2c(C)nn3C(=O)c2ccc(Cl)cc2)ccc1O` (configuration not stated), the TGI with RPMI-8226 leukemia, in the experiment on OVCAR-4 ovarian, in the experiment on OVCAR-8 ovarian, in the experiment with ACHN renal, in the experiment with SF-295 CNS and in the experiment with RXF 393 renal was above 10 µM each time. Moreover, the TGI in the experiment on 786-0 renal, with LOX IMVI melanoma and in the experiment on K-562 leukemia was above 10 µM each time.

Consider `CC(=O)c1cccc(NC(=O)/C(=N\NC(=S)NN)C2C(=O)Nc3ccccc3S2=O)c1` (configuration not stated), for which the TGI in the experiment on RPMI-8226 leukemia, in the experiment with OVCAR-8 ovarian, in the experiment with UO-31 renal, with ACHN renal, in the experiment on SF-295 CNS and in the experiment on RXF 393 renal was above 100 µM each time. Moreover, the TGI in the experiment with 786-0 renal, in the experiment on LOX IMVI melanoma and in the experiment on K-562 leukemia was above 100 µM throughout.

For `CN1C(=O)C(O)C[C@@H]1c1ccc(F)cc1` (some centres not stated), the TGI in the experiment on RPMI-8226 leukemia, in the experiment with OVCAR-4 ovarian, with UO-31 renal, in the experiment on ACHN renal, in the experiment on SF-295 CNS and in the experiment with RXF 393 renal was above 100 µM in each case. Besides, the TGI in the experiment with 786-0 renal and in the experiment with LOX IMVI melanoma was above 100 µM throughout.

With `Fc1ccc(C(OCCN2CCC3CCC(C2)N3C/C=C/c2cccnc2)c2ccc(F)cc2)cc1` (configuration not stated), the TGI in the experiment on RPMI-8226 leukemia was found to be 5.8 µM; in the experiment with OVCAR-4 ovarian, 30.2 µM; in the experiment with OVCAR-8 ovarian, 25.9 µM; with UO-31 renal, 6.09 µM; in the experiment with ACHN renal it was 27.3 µM; with SF-295 CNS it was 22.2 µM. Also, the TGI was determined as 19.4 µM with RXF 393 renal, 17.8 µM in the experiment with 786-0 renal and 27 µM with LOX IMVI melanoma.

The values are drawn from PubChem BioAssay (NCI).
